The nature of data set [1]: Solubilization of DMPC lipid vesicles by peptides. In kind it is physicochemical. The conditions noted are these: DMPC vesicles 1 mg/mL in PBS, peptide 0.1 mg/mL, 24 °C, 660 nm.
For data set [2], the system named is BHK cells expressing ABCA1. Kind of data set: Radiolabeled cholesterol efflux from ABCA1-BHK cells. In kind it is cell-based. Particulars: [3H]-cholesterol transferred from ABCA1-BHK cells to serum free medium containing peptides over 18 h; triplicates.

In the case of VLESFKVSFLSALEEYTKKLNT, in data set [1], the “DMPC vesicle solubilization, comparison between peptides” value is “less effective than the other active peptides”. Besides, in data set [2], the “ABCA1-mediated cholesterol efflux” value was “almost completely inactive”.

(Values after article PMC8482877 (Biochemical and biophysical research communications, 2020).)
